# Assay results reported in patent US8703483B2, “Reagents and methods for using human embryonic stem cells to evaluate toxicity of pharmaceutical compounds and other chemicals” (Wisconsin Alumni Research Foundation, priority 2006, dated 2014).
# Test system: human embryonic stem cells
# Test: Metabolite profiling (LC/ESI-TOF mass spectrometry) of extracellular media of hESCs treated with alcohol
# Format: cell-based
# Conditions: ETOH 0.3, 24 H
# Source text: Binned masses were annotated in silico by querying the neutral masses in several different databases. These databases included Metlin, Biological Magnetic Resonance Data Bank (BMRB), NIST Chemistry WebBook, and the Human Metabolome Database. A mass was considered identified when its neutral mass was within 10 ppm of a known compound annotated in one of the databases listed above.
structure (smiles),measurement,setting,value
CCO [ETOH],"Fold: 5-Methoxytryptophan, mass 234.125, RT 47.0879",,−1.632 fold
same,"Fold: GABA analogue, mass 171.1244, RT 26.70635",,3.755 fold
same,"Fold: Hexylamine, mass 101.1201, RT 10.21225",,2.192 fold
same,"Fold: N-Methyl-2-pyrrolidinone, mass 99.0689, RT 15.48433",,1.468 fold
same,"Fold: Unknown, mass 83.0372, RT 85.57399",,2.472 fold
same,"Fold: Unknown, mass 99.1043, RT 52.01225",,3.331 fold
same,"Fold: Unknown, mass 130.9541, RT 88.64043",,2.025 fold
same,"Fold: Unknown, mass 148.0052, RT 3.958833",,−1.73 fold
same,"Fold: Unknown, mass 153.0811, RT 27.80141",,−1.6976 fold
same,"Fold: Unknown, mass 161.0805, RT 14.22357",,−6.435 fold
same,"Fold: Unknown, mass 178.5546, RT 28.52393",,−2.764 fold
same,"Fold: Unknown, mass 194.0836, RT 22.61355",,−1.703 fold
same,"Fold: Unknown, mass 222.0401, RT 27.57188",,−2.112 fold
same,"Fold: Unknown, mass 223.119, RT 13.6845",,−2.74 fold
same,"Fold: Unknown, mass 229.2025, RT 32.9941",,−1.377 fold
same,"Fold: Unknown, mass 237.0041, RT 3.673694",,2.989 fold
same,"Fold: Unknown, mass 239.9592, RT 5.176232",,1.64 fold
same,"Fold: Unknown, mass 267.2543, RT 40.75868",,−1.496 fold
same,"Fold: Unknown, mass 271.9364, RT 4.86619",,4.07 fold
same,"Fold: Unknown, mass 275.1193, RT 22.86183",,−2.237 fold
same,"Fold: Unknown, mass 288.2632, RT 75.76147",,1.969 fold
same,"Fold: Unknown, mass 294.1531, RT 24.21651",,−1.892 fold
same,"Fold: Unknown, mass 298.1537, RT 66.35884",,3.758 fold
same,"Fold: Unknown, mass 299.1929, RT 19.66398",,−1.571 fold
same,"Fold: Unknown, mass 303.8875, RT 4.954547",,2.07 fold
same,"Fold: Unknown, mass 313.199, RT 44.09424",,2.292 fold
same,"Fold: Unknown, mass 324.1666, RT 30.19245",,−1.593 fold
same,"Fold: Unknown, mass 337.2012, RT 8.542672",,1.287 fold
same,"Fold: Unknown, mass 340.9252, RT 5.033976",,−1.836 fold
same,"Fold: Unknown, mass 342.1482, RT 68.02448",,−1.853 fold
same,"Fold: Unknown, mass 360.1321, RT 18.50245",,−2.289 fold
same,"Fold: Unknown, mass 362.2787, RT 83.72506",,−2.542 fold
same,"Fold: Unknown, mass 378.2956, RT 41.28494",,1.636 fold
same,"Fold: Unknown, mass 393.1889, RT 15.90129",,−1.511 fold
same,"Fold: Unknown, mass 440.0284, RT 54.46495",,2.51 fold
same,"Fold: Unknown, mass 444.2237, RT 51.58546",,2.242 fold
same,"Fold, Unknown metabolite, Mass 820.8181",retention time 4.613879,−1.851
same,"Fold, Unknown metabolite, Mass 711.8344",retention time 4.826824,−2.256
same,"Fold, Unknown metabolite, Mass 913.8074",retention time 5.217833,−1.885
same,"Fold, Unknown metabolite, Mass 888.8041",retention time 5.259716,1.222
same,"Fold, Unknown metabolite, Mass 922.0048",retention time 5.387775,−2.755
same,"Fold, Unknown metabolite, Mass 555.8505",retention time 5.742094,−1.518
same,"Fold, metabolite Ethanesulfonic acid, Mass 579.2519",retention time 5.903169,−1.48
same,"Fold, metabolite Oxidized glutathione, Mass 612.1509",retention time 8.056862,−1.595
same,"Fold, Unknown metabolite, Mass 485.204",retention time 10.8217,2.038
same,"Fold, Unknown metabolite, Mass 482.1942",retention time 10.82859,−1.528
same,"Fold, Unknown metabolite, Mass 666.3836",retention time 16.3338,−1.371
same,"Fold, metabolite L-Urobilinogen, Mass 596.3543",retention time 25.14927,1.835
same,"Fold, Unknown metabolite, Mass 464.225",retention time 25.3287,−1.717
same,"Fold, Unknown metabolite, Mass 455.2052",retention time 28.27806,−2.509
same,"Fold, Unknown metabolite, Mass 447.2509",retention time 29.86415,2.103
same,"Fold, Unknown metabolite, Mass 444.2789",retention time 30.05687,−1.835
same,"Fold, Unknown metabolite, Mass 707.3933",retention time 30.43889,−1.792
same,"Fold, Unknown metabolite, Mass 466.2921",retention time 30.46172,−1.959
same,"Fold, Unknown metabolite, Mass 488.305",retention time 30.83472,−2.185
same,"Fold, Unknown metabolite, Mass 488.8071",retention time 30.88032,−1.92
same,"Fold, Unknown metabolite, Mass 510.3182",retention time 31.20706,−2.264
same,"Fold, Unknown metabolite, Mass 510.8202",retention time 31.22083,−2.045
same,"Fold, Unknown metabolite, Mass 523.8187",retention time 31.53434,−2.173
same,"Fold, Unknown metabolite, Mass 591.3789",retention time 31.54325,−1.982
same,"Fold, Unknown metabolite, Mass 532.8335",retention time 31.58889,−2.169
same,"Fold, Unknown metabolite, Mass 554.3444",retention time 31.8519,−2.37
same,"Fold, Unknown metabolite, Mass 554.8471",retention time 31.891,−2.297
same,"Fold, Unknown metabolite, Mass 576.3582",retention time 32.15777,−2.209
same,"Fold, Unknown metabolite, Mass 541.3274",retention time 32.24719,−2.123
same,"Fold, Unknown metabolite, Mass 611.871",retention time 32.70236,−2.192
same,"Fold, Unknown metabolite, Mass 620.8861",retention time 32.73907,−2.321
same,"Fold, Unknown metabolite, Mass 642.397",retention time 32.95522,−2.211
same,"Fold, Unknown metabolite, Mass 677.9101",retention time 33.48766,−2.647
same,"Fold, Unknown metabolite, Mass 463.2914",retention time 33.5733,−1.665
same,"Fold, Unknown metabolite, Mass 466.615",retention time 33.68894,−3.279
same,"Fold, Unknown metabolite, Mass 774.4767",retention time 34.33545,−2.342
same,"Fold, Unknown metabolite, Mass 521.9924",retention time 34.35986,−1.584
same,"Fold, Unknown metabolite, Mass 751.4193",retention time 35.028,−1.703
same,"Fold, metabolite Neu5Acalpha2-3Galbeta1-4Glcbeta-Sp, Mass 702.2497",retention time 40.84822,1.283
same,"Fold, Unknown metabolite, Mass 449.2611",retention time 44.98056,−3.471
same,"Fold, Unknown metabolite, Mass 467.3804",retention time 46.51446,−2.135
same,"Fold, Unknown metabolite, Mass 518.3914",retention time 46.57666,−2.707
same,"Fold, Unknown metabolite, Mass 539.4374",retention time 51.52268,−1.93
same,"Fold, Unknown metabolite, Mass 446.0431",retention time 54.8719,−2.221
same,"Fold, Unknown metabolite, Mass 707.4296",retention time 56.18269,−2.434
same,"Fold, Unknown metabolite, Mass 611.4952",retention time 56.3513,−1.9811
same,"Fold, Unknown metabolite, Mass 765.5211",retention time 69.32865,1.884
same,"Fold, Unknown metabolite, Mass 482.3062",retention time 72.7735,−2.618
